Test results taken from patent US20190175646A1, “METHODS AND COMPOSITIONS RELATING TO THE TREATMENT OF BENIGN SKIN TUMORS” (THE GENERAL HOSPITAL CORPORATION D/B/A MASSACHUSETTS …, priority 2015, published 2019).

System: SK cells
Experiment: SK cell viability (Alamar blue absorbance assay)
Format: cell-based, human
Conditions: indicated concentrations, 48 hours
Method: FIG. 1 depicts a graph in which SK cells were treated with DSF and CuCl2 (indicated concentrations) for 48 hours and relative cellular viability was measured using Alamar blue (absorbance based) assay. A443654 Akt inhibitor was used as a control.
FIG. 2 depicts a graph in which SK cells and normal human keratinocytes were treated with DSF and CuCl2 (indicated concentrations) for 48 hours and relative cellular viability was measured using Alamar blue (absorbance based) assay. A443654 Akt inhibitor was used as a control.
FIG. 4 depicts a graph of SK cell viability after treatment with DSF and/or Cu^2+. A443654 Akt inhibitor was used as a control.
FIG. 5 depicts a graph of SK cell viability after treatment with DSF and/or Zn^2+. A443654 Akt inhibitor was used as a control.
FIGS. 8 and 9 depict graphs of SK cell viability after treatment with pyrithione and/or Cu^2+. A443654 Akt inhibitor was used as a control. Cells from different donors were used for each experiment

COc1ccc(C2=N[C@@H](c3ccc(Cl)cc3)[C@@H](c3ccc(Cl)cc3)N2C(=O)N2CCNC(=O)C2)c(OC(C)C)c1 [nutlin-3a]
effect on SK cell viability: impair SK viability
